Values quoted from earlier work as cited in patent US20070166344A1, “Non-leaching surface-active film compositions for microbial adhesion prevention” (priority 2006, published 2007).

Conditions: organism not given

## Benzalkonium chloride
  MIC level: about 7.5 ppm
